From ChEMBL document CHEMBL1127890, “Syntheses of new bacteriochlorins and their antitumor activity” (1994)

Legend:
Assay type in all cases: functional
Conditions in all cases: route intravenous
Mus musculus [1] = assay: In vivo tumor response 3 hour after post i.v. injection at a dose of 5 mg/kg in DBA/2 mice having SMT/F tumor after 1-2 days
Mus musculus [2] = assay: In vivo tumor response 3 hour after post i.v. injection at a dose of 5 mg/kg in DBA/2 mice having SMT/F tumor after 30 days
Mus musculus [3] = assay: In vivo tumor response 3 hour after post i.v. injection at a dose of 5 mg/kg in DBA/2 mice having SMT/F tumor after 7 days
Mus musculus [4] = assay: In vivo tumor response 3 hour after post i.v. injection at a dose of 5 mg/kg in DBA/2 mice having SMT/F tumor after 21 days

Structure (SMILES)	Tumor response (Mus musculus [1])	Tumor response (Mus musculus [2])	Tumor response (Mus musculus [3])	Tumor response (Mus musculus [4])
CCC1(O)c2cc3nc4c(c5nc(cc6[nH]c(cc([nH]2)C1(C)O)c(C=O)c6C)[C@@H](C)[C@@H]5CCC(=O)OC)C(=O)OC(=O)C4=C3C (some centres undefined)	0%	–	–	–
CCC1(O)c2cc3nc4c(c5nc(cc6[nH]c(cc([nH]2)C1(C)O)c(C=O)c6C)[C@@H](C)[C@@H]5CCC(=O)NC(CC(=O)OC(C)(C)C)C(=O)OC(C)(C)C)C(=O)OC(=O)C4=C3C (some centres undefined)	100%	80%	100%	80%
CCOC(=O)C(N)CCCCN1C(=O)C2=C(C)c3cc4[nH]c(cc5[nH]c(cc6nc(c(c2n3)C1=O)[C@@H](CCC(=O)OC)[C@@H]6C)c(C)c5C=O)C(C)(O)C4(O)CC (some centres undefined)	100%	20%	100%	20%
